# Laboratory results as given in US5583000A, “Protease-binding compounds and methods of use” (priority 1993, dated 1996).
# “And” between values parts separate entries of the source, which are not always exact repeats. Identical values can stand only once. Like-named read-outs stand apart in the source and are kept apart here. Square brackets hold non-standard residues; d marks the D form. Ends that are not written are not given here. Peptide text beside a SMILES is read from it. * marks the point of attachment. Sta = CC(C)C[C@H](N)[C@@H](O)CC(=O)O; Isovaleryl = CC(C)CC(=O)*
# Tests used:
# HIV protease = HIV protease (Human immunodeficiency virus type 1 group M subtype B, UniProt P04585); settings: cited from earlier work
# p24 = p24 core antigen ELISA of virus from treated COS-7 cells
# Method: Drug treatment. The compounds were added 48 hours post-transfection, at the peak of virus production, and the incubation was restricted to a 4-hour period. […] Culture media were adjusted to the desired concentration of these compounds just prior to the addition of the media to cells. To avoid precipitation, the compounds were aliquoted first to a tube in sufficient DMSO to yield a 1.0% final concentration, and subsequently the culture medium was added quickly and vortexed. The culture medium was collected after 4 hours of incubation of the cells with each of the compounds. This culture supernatant is the source of virus for measurement of infectivity as well as levels of p24 and other capsid proteins.
# p24 Core antigen ELISA assay. An ELISA kit purchased from NEN/Dupont was used to determine the amount of p24 present in culture media or virus preparations. This capture assay uses a monoclonal antibody that preferentially binds p24 while it reacts with larger capsid protein precursors to a very limited extent. The assay was carded out using the manufacturer's indications. Samples were pre-treated with 1% Triton to inactivate the virus.
# Virus isolation by ultracentrifugation. The culture medium was filtered through a 0.45 μm syringe filter and was then centrifuged to remove any precipitate. The medium was then spun through a cushion of 20% sucrose in PBS in an SW41 Beckman rotor for 1.5 hours at 35K and 4° C. The pelleted material was collected.
# Following incubation of virus-producing cells with various concentrations of the test compounds, the virus particles were isolated by ultracentrifugation. These particles were disrupted using Triton X-100 and the amount of p24 capsid protein was quantitated by ELISA.
# HIV-2 protease = molecular target: T1, HIV-2 protease (Human immunodeficiency virus type 2 subtype A, UniProt P04584); assay: biochemical
# T1 construct: the coding region of the 99-amino acid protease; made in house; host or cells: Saccharomyces cerevisiae strain AB110, plasmid pHIV2PR115
# HIV-1 protease [1] = molecular target: T2, HIV-1 protease (Human immunodeficiency virus type 1 group M subtype B, UniProt P03369); assay: biochemical
# in vitro [2] = assay: in vitro
# Method: Cytotoxicity. The MTT assay was performed as follows:
# The cells were seeded in 96-well plates and grown overnight to near 50% confluency. A serial dilution (1 to 500 μM) of each compound in culture media was prepared and 250 μL/well was added in duplicate. The cells were allowed to grow for various periods of time (6, 24, 48 hours) and any precipitation of compounds in the wells was noted. The assay was performed by removing 200 μL of the culture media and adding 25 μL of MTT solution (2 mg/mL in phosphate buffered saline (PBS)). This was incubated for 4 hours at 37° C. and live cells began to turn purple while the solution remained yellow. To quench the reaction and solubilize the reaction product, 160 μL of acidified isopropanol (4 mL 1N HCl for 96 mL alcohol) were added and the resulting mixture was mixed vigorously to dissolve purple crystals. Absorbance was determined at 550-570 nm on an ELISA plate reader within 0.5-2 hours. […] To obtain the LD50 values for each compound, the concentration at which the absorbance is haft of that for the untreated cells was determined.
# in vitro [3] = settings: african green monkey, cos-7 cells
# Method: (§1) MTT cell viability assay. This is a quantitative colorimetric assay for mammalian cell survival and proliferation. Cells were seeded in 96 well plates and grown to near 50% confluency. A serial dilution (1 to 500 μM) of each compound was then prepared in culture media and added (250 μL/well) in duplicate. All culture media was adjusted to a final concentration of 1.0% DMSO (volume basis). The cells were allowed to grow for either 4 hours or 24 hours. The culture media were then removed, and the cells were washed with phosphate buffered saline (PBS) before 50 μL of MTT solution (1 mg/mL in PBS) was added. After incubating for 4 hours at 37° C., the reaction was quenched by adding 160 μL of acidified isopropanol and mixing to dissolve purple crystals. The absorbance was determined within 30 minutes at 570 nm on an ELISA plate reader.
# (§2) The cytotoxic effect of the inhibitors was determined using the MTT stain viability assay.
# HIV = assay: HeLa/T4 infectivity assay with replication-defective virions from transfected COS-7 cells; format: cell-based; settings: for colony reduction (summary in words): Table 5 concentrations
# HIV-1 PR [4] = molecular target: T3, HIV-1 PR (Human immunodeficiency virus type 1 group M subtype B, UniProt P03369); assay: biochemical; format: binding; settings: preincubation 10 μM one hour, then radio-labelled UCSF84 200 μM
# HIV-1 PR C95M = HIV-1 PR C95M (Human immunodeficiency virus type 1 group M subtype B, UniProt P03369, C585M); assay: Protection experiment, incorporation of radio-labelled UCSF84; format: binding; settings: for incorporation after preincubation of the enzyme: preincubation 10 μM, then radio-labelled UCSF84
# HIV-1 protease [5] = molecular target: T2, HIV-1 protease; format: cell-based; parameters: fused to amino acids 5 (Asp) to 179 (Trp) of the pol region; human superoxide dismutase (hSOD, 153 residues) (N); Phe-Arg-Glu are pol residues) (N); additional Pro residue of pol (C); expressed in transfected cells; host or cells: E. coli strain D1210 harboring plasmid pSOD/PR179
# HIV-1 PR [6] = molecular target: T3, HIV-1 PR; settings: pH 8
# HIV-1 PR Q7K = HIV-1 PR Q7K (Human immunodeficiency virus type 1 group M subtype B, UniProt P03369, Q497K); format: biochemical
# HIV-2 PR [7] = molecular target: T4, HIV-2 PR (Human immunodeficiency virus type 2 subtype A, UniProt P04584); assay: biochemical; format: biochemical; settings: for KI (inactivation): inhibitor concentration resulting in half-maximal inactivation, pH 8.0, 25° C., read-out: kinact (μM) HIV-2; for kinact: pH 8, maximum inactivation rate, read-out: Vinact (min^-1 × 10^3) HIV-2 (converted)
# T4 construct: HIV-2 PR (at a final concentration of 30 μg/mL); made in house
# [8] = MTT cell viability assay (Tables 5 and 7); settings: african green monkey, cos-7 cells
# Method: as §1, §2
# HIV-2 PR [9] = molecular target: T4, HIV-2 PR; assay: Protection experiment, incorporation of radio-labelled UCSF84; format: binding
# HIV-1 PR [10] = molecular target: T3, HIV-1 PR; settings: pH 8; remark: listed apart in the source
# Method: Once full inhibition was achieved, the enzyme was isolated by reverse phase HPLC on a C3 -Zorbax Protein Plus column (4.6 mm×25 cm), using a 100-minute linear gradient from 5 to 65% acetonitrile in 0.1% TFA. The flow rate was 1 mL/min and the eluent was monitored at 220 nm. The two major components of the isolated sample were concentrated under vacuum, dissolved in a small volume of 50% acetonitrile and 1% acetic acid, and their molecular weights determined by electrospray mass spectrometry. The spectra were recorded on a VG EIectrospray. Mass Spectrometer Model Bio-Q.
# [11] = Human immunodeficiency virus 1, COS-7, 4 h, read-out: % p24 Relative to Untreated
# [12] = HIV-1 Protease IC50 (μM) 1M NaCl
# [13] = read-out: kinact (μM) HIV-1; inhibitor concentration resulting in half-maximal inactivation; pH 8.0, 25° C.
# T4 sequence (P04584 514-612 limits assumed): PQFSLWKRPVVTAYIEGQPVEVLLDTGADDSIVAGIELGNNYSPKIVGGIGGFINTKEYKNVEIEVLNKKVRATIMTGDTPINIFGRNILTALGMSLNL
# T1 sequence (P04584 514-612 limits assumed): as above
molecule,measurement,setting,value
CC(C)CC(=O)N[C@H](C(=O)N[C@H](C(=O)N[C@@H](CC(C)C)[C@@H](O)CC(=O)N[C@@H](C)C(=O)N[C@@H](CC(C)C)[C@@H](O)CC(=O)O)C(C)C)C(C)C [pepstatin A] (Isovaleryl-VV[Sta]A[Sta]-OH),inhibition of protein processing by HIV protease,HIV protease,partially inhibit protein processing
C=C(CCC[N+]1([O-])CCC(O)(c2ccc(Cl)cc2)CC1)c1ccc(F)cc1 (centres unmarked) [UCSF42],solubility,physchem,500 µM
same,activity at 75 µM,p24; [11],45%
same,IC50,HIV-2 protease; 1M NaCl,67 µM
same,HIV-1 Protease Therapeutic Index (LD50 /IC50),HIV-1 protease [1],5.3
same,inhibition of HIV-1 protease compared with other compounds,HIV-1 protease [1],better inhibitor than haloperidol but not as potent an inhibitor as UCSF8
same,IC50,HIV-1 protease [1]; [12],30 µM
same,CC50 at 6 h,in vitro [2],160 µM
same,CC50 at 4 h,in vitro [3],300 µM
same,"cytotoxicity at 4 h, 75 µM",in vitro [3],0%
same,inhibition at 75 µM,"HIV; Human immunodeficiency virus 1, HeLaT4, 75 μM, 4-hour treatment, read-out: Hela/T4 Infection % Colony Reduction",92%
same,colony reduction (summary in words),HIV,significant colony reduction
"OC1(CCCCc2ccccc2)CCC(O)(c2ccccc2)CC1 (centres unmarked) [UCSF29, 4-(4'-phenylbutyl)-1-phenyl-1,4-cyclohexanediol]",solubility,Solubility,> 250 µM
same,activity at 250 µM,p24; [11],35%
same,IC50,"HIV-1 protease [1]; 0.2M NaCl, read-out: IC50",1400 µM
same,IC50,"HIV-1 protease [1]; 0.5M NaCl, read-out: IC50",625 µM
same,IC50,"HIV-1 protease [1]; 1.0M NaCl, read-out: IC50",128 µM
same,inhibition of HIV-1 protease compared with other compounds,"HIV-1 protease [1]; FIGS. 5-8, three salt concentrations",not unlike that for haloperidol
same,IC50,"HIV-1 protease [1]; HIV-1 Protease IC50 (μM) 1M NaCl, 1M NaCl",128 µM
same,HIV-1 Protease Therapeutic Index (LD50 /IC50),HIV-1 protease [1]; LD50/IC50,1.2
same,CC50 at 6 h,in vitro [2],160 µM
same,CC50 at 4 h,in vitro [3],180 µM
same,"cytotoxicity at 4 h, 250 µM",in vitro [3],80%
same,inhibition at 250 µM,"HIV; Human immunodeficiency virus 1, HeLaT4, 250 μM, 4-hour treatment, read-out: Hela/T4 Infection % Colony Reduction",100%
same,colony reduction (summary in words),HIV,significant colony reduction
Val-Ser-Asn-Ler-.psi.[CH(OH)CH2 ]-Val-Ile-Val (VSNLVIV; numbers in words are those of the source; also: Leu-Val peptide bond replaced by hydroxyethylene isostere ψ[CH(OH)CH2]) [Compound U-85548],blocking of radioactivity incorporation to HIV-1 PR,HIV-1 PR [4],approximately 65%
same,incorporation after preincubation of the enzyme,HIV-1 PR C95M,sharply reduced
OC(CCCN1CCC(O)(c2ccc(Cl)cc2)CC1)c1ccc(F)cc1 (centres unmarked) [UCSF2],solubility,physchem,> 250 µM
same,IC50,HIV-2 protease,700 µM
same,HIV-1 Protease Therapeutic Index (LD50 /IC50),HIV-1 protease [1],0.5
same,IC50,HIV-1 protease [1]; [12],200 µM
same,inhibition of protein processing (intermediate bands),HIV-1 protease [5],An increase in the band representing an intermediate in the vicinity of the 29-kDa marker
OC1(c2ccc(Cl)cc2)CCN(CC#CC2(c3ccccc3)CO2)CC1 (centres unmarked) [UCSF84],solubility,physchem,> 250 µM
same,reversibility of inhibition after dilution and buffer exchange,HIV-1 PR [6],irreversible modification of the enzyme
same,IC50,"p24; read-out: Reduction of p24 IC50, 4 hours incubation, ELISA",50 µM
same,KI (inactivation),HIV-1 PR Q7K; [13],521 ± 56.6 µM
same,KI (inactivation),HIV-2 PR [7],283 ± 9.3 µM
same,kinact,HIV-2 PR [7],0.0146 min⁻¹
same,IC50,HIV-1 protease [1]; [12],150 µM
same,CC50 at 6 h,in vitro [2],100 to 165 µM
same,CC50 at 4 h,in vitro [3],120 µM
same,CC50 at 24 h,in vitro [3],50 µM
same,incorporation of radioactivity relative to HIV-1 PR,"HIV-1 PR C95M; 200 μM, one hour, 25° C.",approximately 50%
"OC1(c2ccc(Cl)cc2)CCN(CCCC2(c3ccc(F)cc3)SCCS2)CC1 [UCSF8, (1,2-ethanethioacetal)-4-(4-(p-chlorophenyl)-4-hydroxypiperidinyl]-4'-fluorobutyrophenone]",solubility,physchem,> 250 µM
same,activity at 20 µM,p24; [11],62%
same,IC50,HIV-2 protease; 1M NaCl,100 µM
same,HIV-1 Protease Therapeutic Index (LD50 /IC50),HIV-1 protease [1],4
same,inhibition of HIV-1 protease compared with other compounds,HIV-1 protease [1],50% inhibition is achieved at a much lower inhibitor concentration relative to haloperidol
same,IC50,HIV-1 protease [1]; [12],15 µM
same,IC50,HIV-1 protease [1]; IC50,73 µM and 32 µM and 15 µM
same,CC50 at 6 h,in vitro [2],60 µM
same,CC50 at 4 h,in vitro [3],45 µM
same,"cytotoxicity at 4 h, 20 µM",in vitro [3],55%
same,inhibition at 20 µM,"HIV; Human immunodeficiency virus 1, HeLaT4, 20 μM, 4-hour treatment, read-out: Hela/T4 Infection % Colony Reduction",85%
same,colony reduction (summary in words),HIV,significant colony reduction
"C/C=C/C/C=C/CCC(=O)[C@H]1O[C@H]1C(N)=O [cerulenin, reference compound]",activity at 100 µM,p24; [11],36%
same,CC50 at 4 h,in vitro [3],900 µM
same,inhibition of protein processing (35-kDa and 38-kDa intermediates),"HIV-1 protease [5]; 500 μM, 15 minutes (FIG. 11b)",no detectable inhibition
same,inhibition of protein processing (intermediate bands),"HIV-1 protease [5]; 500 μM, 120 minutes (FIG. 11c)",protein processing inhibition
same,inhibition at 100 µM,"HIV; Human immunodeficiency virus 1, HeLaT4, 100 μM, 4-hour treatment, read-out: Hela/T4 Infection % Colony Reduction",77%
same,"cytotoxicity at 4 h, 100 µM",[8],0%
"O=[N+]([O-])c1ccc(OCC2CO2)cc1 (centres unmarked) [EPNP, 1,2-epoxy-3-(p-nitrophenoxy)-propane, reference compound]",radioactivity incorporation after preincubation,HIV-2 PR [9],almost complete elimination of radioactivity incorporation
same,KI (inactivation),"HIV-1 PR Q7K; inhibitor concentration resulting in half-maximal inactivation; pH 8.0, 25° C.; read-out: kinact (μM) HIV-1",9900 ± 1000 µM
same,KI (inactivation),HIV-2 PR [7],6700 ± 600 µM
same,kinact,HIV-2 PR [7],0.0482 min⁻¹
same,inhibition at 10 µM,"HIV-1 PR [4]; 1 h, pH 8, read-out: blocking of radioactivity incorporation to HIV-1 PR",~50%
same,incorporation after preincubation of the enzyme,HIV-1 PR C95M,sharply reduced
"O=C(C#CCN1CCC(O)(c2ccc(Cl)cc2)CC1)c1cccc(-c2ccccc2)c1 [UCSF142, 4-(4'-(4""-chlorophenyl)-4'-hydroxypiperidinyl)-1-m-biphenylbut-2-yn-1-one]",solubility,physchem,100 µM
same,KI (inactivation),HIV-1 PR Q7K; [13],10.7 ± 1.3 µM
same,KI (inactivation),HIV-2 PR [7],8.6 ± 1 µM
same,kinact,HIV-2 PR [7],0.0097 min⁻¹
same,HIV-1 Protease Therapeutic Index (LD50 /IC50),HIV-1 protease [1],0.56
same,IC50,HIV-1 protease [1]; [12],63 µM
same,CC50 at 6 h,in vitro [2],35 µM
same,CC50 at 4 h,in vitro [3],35 µM
same,CC50 at 24 h,in vitro [3],< 5 µM
same,"molecules of inhibitor bound per HIV-1 protease (molecular weight 11,649)",HIV-1 PR [10],two molecules
